Patent publication US8722027B2, “Method for preparing broussonetia kazinoki extract” (Amorepacific Corporation, priority 2010, dated 2014)
Converted amounts (≈) assume the structure as drawn.

Tests used:
[1] = system: B16 melanoma cells; test: Cytotoxicity measurement (MTT assay); type: cell-based, mouse
Description: (§1) B16 melanoma cells from C57BL/6J (black, a/a) mouse melanoma were purchased from the Cell Line Bank. The cells were cultured in DMEM medium containing 10% fetal bovine serum (LONZA), 50 U/ml of penicillin and 50 μg/ml of […] streptomycin under the conditions of 37° C. and 10% CO2.
B16 melanoma cells were seeded in a 96-well plate at a density of 1×10^4 cells/well and cultured for 1 day. The medium was replaced with fresh medium containing each of arbutin and various concentration of the composition of Preparation Example 6, and the cells were cultured again for 24 hours. 50 μl of an MIT solution obtained by dissolving MIT in cell culture medium at a concentration of 2 mg/ml was added to each well, and medium was added to each well to a final volume of 200 μl, after which the cells were incubated for 3-4 hours. The medium was removed, and the produced formazan crystals were dissolved in 150 μl of DMSO, after which the absorbance of the formazan solution was measured at 540 nm. The measured absorbance was expressed as a percentage relative to the control (not treated with the test material) to evaluate whether the test sample has cytotoxicity.

[2] = system: B16 melanoma cells; test: Inhibition of melanin production (α-MSH stimulated); type: cell-based, mouse; details: 100 μg/ml, 1 μM α-MSH
Description: as §1
B16 melanoma cells were seeded in a 24-well plate at a density of 4×10^4 cells/well and cultured overnight so as to adhere well to the plate. Then, medium containing 1 μM α-MSH for promoting melanin production and each concentration of the test sample of Preparation Example 6 or arbutin was added to each well. The plate was incubated for 72 hours, and then 200 μl of the cell culture medium was taken and the absorbance at 405 nm was measured. Based on the measurement, the amount of melanin was calculated. The calculated amount of melanin was expressed as a percentage relative to the control (not treated with the test material), and the results are shown in Table 9 below.

[3] = system: mushroom tyrosinase; test: Inhibition of tyrosinase activity (L-tyrosine substrate); type: biochemical
Description: First, as test samples, arbutin and the composition of Preparation Example 6 were prepared at various concentrations, and an enzyme was added thereto in an amount corresponding to 10 units, after which 0.1M phosphate buffer was added thereto to a final volume of 100 μl. 100 μl of 0.03% L-tyrosine substrate solution was added thereto, and then immediately, the absorbance at 475 nm was measured. Then, the mixture was allowed to react at 37° C. for 10 minutes, after which it was placed on ice to stop the reaction, and the absorbance was measured again.

[4] = system: tyrosinase; test: Tyrosinase inhibitory effect (method of Test Example 1-2); type: biochemical; details: 50 mg sample in 100 ml ethanol, diluted 10-fold; 50 μl sample solution; 37° C., 10 minutes; absorbance 490 nm
Description: 50 mg of a sample to be evaluated for tyrosinase inhibitory activity was dissolved in ethanol to make 100 ml of a solution. 10 ml of the solution was taken, and ethanol was added thereto to make 100 ml of a sample solution. 500 μl of a substrate solution, 450 μl of purified water and 50 μl of the sample solution are added to and mixed with 500 μl of buffer, and 50 μl of an enzyme (tyrosinase) solution is added to the mixture. The resulting mixture is allowed to react at 37° C. for 10 minutes, and then immediately allowed to stand on ice for 5 minutes, and the absorbance at 490 nm is measured. The tyrosinase inhibitory effect of the sample is evaluated based on the absorbance of the sample compared to the absorbance of a blank sample.

[5] = Partition coefficient in two-phase solvent system; type: physicochemical; details: hexane/ethyl acetate/methanol/water 5/5/5/2
Description: The partition coefficient of kazinol C was measured in the following manner First, 1 mg of the extract of Example 3 was placed in a 10-ml test tube, and 2 ml of each of the upper layer solution and lower layer solution of a two-phase solution system, which reached equilibrium, was added thereto, and the mixture was shaken intensively for 1 minute. After the two phases have reached equilibrium, 100 μl of each of the upper layer solution and the lower layer solution was taken, dried, dissolved in 1 ml of ethanol, and analyzed by HPLC. The value obtained by dividing the amount of kazinol C in the upper layer solution by the amount of kazinol C in the lower layer solution was determined as partition coefficient.

[6] = biological target: T1, tyrosinase (Homo sapiens, UniProt P14679); details: compared to kojic acid; known; cited from earlier work
T1 sequence (P14679 19-529): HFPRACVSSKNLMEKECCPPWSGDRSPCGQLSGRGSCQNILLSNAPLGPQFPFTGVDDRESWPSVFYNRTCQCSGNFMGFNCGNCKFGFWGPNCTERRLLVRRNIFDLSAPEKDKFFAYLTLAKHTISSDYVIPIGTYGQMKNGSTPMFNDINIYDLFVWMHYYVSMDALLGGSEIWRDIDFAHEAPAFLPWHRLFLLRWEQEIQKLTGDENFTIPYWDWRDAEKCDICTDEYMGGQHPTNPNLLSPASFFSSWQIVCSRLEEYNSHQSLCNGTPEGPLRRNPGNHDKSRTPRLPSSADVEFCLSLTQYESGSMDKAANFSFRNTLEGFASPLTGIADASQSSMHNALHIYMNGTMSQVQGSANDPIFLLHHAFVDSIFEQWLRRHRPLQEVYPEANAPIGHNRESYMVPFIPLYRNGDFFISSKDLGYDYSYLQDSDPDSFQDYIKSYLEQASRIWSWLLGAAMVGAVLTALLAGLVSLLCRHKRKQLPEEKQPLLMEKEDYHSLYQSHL

## OC[C@H]1O[C@@H](Oc2ccc(O)cc2)[C@H](O)[C@@H](O)[C@@H]1O [Arbutin, arbutin]
[1]; 100 μg/ml, 24 hours
  % relative to control (MTT absorbance): 95.1 ± 4.8%
  Toxicity (%): 4.9%
[1]; at a concentration of 100 μg/ml
  Cytotoxicity (in words): no cytotoxicity
[2]; 72 hours
  Inhibition (%) of melanin production: 33.7%
  Melanin % relative to control: 66.3 ± 4.7%
[2]; Mus musculus, B16, 72 h
  inhibition at 100 µg/mL: 21.2%
[3]; 125 μg/ml
  Inhibition (%) of tyrosinase activity: 38.1%
[3]; 250 μg/ml
  Inhibition (%) of tyrosinase activity: 56.5%
[3]; 500 μg/ml
  Inhibition (%) of tyrosinase activity: 87.7%
[3]; mushroom tyrosinase 10 units, 37° C., 10 minutes
  IC50 (μg/ml), tyrosinase activity: 209.6 µg/mL (≈ 770 µM)

## O=c1cc(CO)occ1O [Control, kojic acid]
[4]
  Tyrosinase inhibitory effect (%): 80%

## C=CC(C)(C)c1cc(CCCc2cc(O)c(O)c(CC=C(C)C)c2CC=C(C)C)c(O)cc1O [kazinol C]
[5]
  Partition coefficient (upper layer / lower layer): 0.997
[6]
  Tyrosinase inhibitory effect (in words): excellent tyrosinase inhibitory effect compared to kojic acid
